What was measured:
[1] = system: HL-60(TB); experiment: NCI anticancer screening, Leukemia HL-60(TB); assay type: cell-based; settings: Homo sapiens, read-out: % Growth Inhibition (GI %)
Method in brief: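 Human tumor cell lines of the NCI-60 set were exposed to the compound according to the standard DTP screening method.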

[2] = system: ACHN; experiment: NCI anticancer screening, Renal Cancer ACHN; assay type: cell-based; settings: Homo sapiens, read-out: % Growth Inhibition (GI %)
Method in brief: (§1)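 Processing was done per the standard DTP method, using the NCI-60 collection of human tumour cell lines.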

[3] = system: SF-268; experiment: NCI anticancer screening, CNS Cancer SF-268; assay type: cell-based; settings: Homo sapiens; SF-268, 10 μM; read-out: % Growth Inhibition (GI %)
Method in brief: as §1

[4] = MTT cytotoxicity to normal human lung fibroblast Wi-38 cell line; assay type: cell-based; settings: Wi-38 normal lung fibroblast cells, mean ± SEM, read-out: percentage of Wi-38 viability
[5] = system: SN12C; experiment: NCI anticancer screening, Renal Cancer SN12C; assay type: cell-based; settings: Homo sapiens, read-out: % Growth Inhibition (GI %)
Method in brief: as §1

[6] = system: TK-10; experiment: NCI anticancer screening, Renal Cancer TK-10; assay type: cell-based; settings: Homo sapiens; TK-10, 10 μM; read-out: % Growth Inhibition (GI %)
Method in brief: as §1

[7] = system: U251; experiment: NCI anticancer screening, CNS Cancer U251; assay type: cell-based; settings: Homo sapiens, U-251; U251, 10 μM; read-out: % Growth Inhibition (GI %)
Method in brief: as §1

[8] = system: A549/ATCC; experiment: NCI anticancer screening, Non-Small Cell Lung Cancer A549/ATCC; assay type: cell-based; settings: Homo sapiens, read-out: % Growth Inhibition (GI %)
Method in brief: as §1

[9] = system: UACC-257; experiment: NCI anticancer screening, Melanoma UACC-257; assay type: cell-based; settings: Homo sapiens; UACC-257, 10 μM; read-out: % Growth Inhibition (GI %)
Method in brief: as §1

[10] = system: OVCAR-5; experiment: NCI anticancer screening, Ovarian Cancer OVCAR-5; assay type: cell-based; settings: Homo sapiens; OVCAR-5, 10 μM; read-out: % Growth Inhibition (GI %)
Method in brief: as §1

[11] = system: HOP-62; experiment: NCI anticancer screening, Non-Small Cell Lung Cancer HOP-62; assay type: cell-based; settings: Homo sapiens; HOP-62, 10 μM; read-out: % Growth Inhibition (GI %)
Method in brief: as §1

[12] = system: NCI-H522; experiment: NCI anticancer screening, Non-Small Cell Lung Cancer NCI-H522; assay type: cell-based; settings: Homo sapiens; NCI-H522, 10 μM; read-out: % Growth Inhibition (GI %)
Method in brief: as §1

[13] = system: MALME-3M; experiment: NCI anticancer screening, Melanoma MALME-3M; assay type: cell-based; settings: Homo sapiens, read-out: % Growth Inhibition (GI %)
Method in brief: as §1

[14] = system: SK-MEL-5; experiment: NCI anticancer screening, Melanoma SK-MEL-5; assay type: cell-based; settings: Homo sapiens; SK-MEL-5, 10 μM; read-out: % Growth Inhibition (GI %)
Method in brief: as §1

[15] = system: HS 578T; experiment: NCI anticancer screening, Breast Cancer HS 578T; assay type: cell-based; settings: Homo sapiens, read-out: % Growth Inhibition (GI %)
Method in brief: as §1

[16] = system: 786-0; experiment: NCI anticancer screening, Renal Cancer 786-0; assay type: cell-based; settings: Homo sapiens; 786-0, 10 μM; read-out: % Growth Inhibition (GI %)
Method in brief: as §1

[17] = system: MCF7; experiment: NCI anticancer screening, Breast Cancer MCF7; assay type: cell-based; settings: Homo sapiens; MCF7, 10 μM; read-out: % Growth Inhibition (GI %)
Method in brief: as §1

[18] = system: HCT-116; experiment: NCI anticancer screening, Colon Cancer HCT-116; assay type: cell-based; settings: Homo sapiens; HCT-116, 10 μM; read-out: % Growth Inhibition (GI %)
Method in brief: as §1

[19] = system: HCC-2998; experiment: NCI anticancer screening, Colon Cancer HCC-2998; assay type: cell-based; settings: Homo sapiens; HCC-2998, 10 μM; read-out: % Growth Inhibition (GI %)
Method in brief: as §1

[20] = system: CCRF-CEM; experiment: NCI anticancer screening, Leukemia CCRF-CEM; assay type: cell-based; settings: Homo sapiens, read-out: % Growth Inhibition (GI %)
Method in brief: as §1

[21] = system: HT29; experiment: NCI anticancer screening, Colon Cancer HT29; assay type: cell-based; settings: Homo sapiens, HT-29; HT29, 10 μM; read-out: % Growth Inhibition (GI %)
Method in brief: as §1

[22] = system: HCT-15; experiment: NCI anticancer screening, Colon Cancer HCT-15; assay type: cell-based; settings: Homo sapiens; HCT-15, 10 μM; read-out: % Growth Inhibition (GI %)
Method in brief: as §1

[23] = system: OVCAR-3; experiment: NCI anticancer screening, Ovarian Cancer OVCAR-3; assay type: cell-based; settings: Homo sapiens; OVCAR-3, 10 μM; read-out: % Growth Inhibition (GI %)
Method in brief: as §1

[24] = system: CAKI-1; experiment: NCI anticancer screening, Renal Cancer CAKI-1; assay type: cell-based; settings: Homo sapiens; CAKI-1, 10 μM; read-out: % Growth Inhibition (GI %)
Method in brief: as §1

[25] = system: SK-MEL-2; experiment: NCI anticancer screening, Melanoma SK-MEL-2; assay type: cell-based; settings: Homo sapiens; SK-MEL-2, 10 μM; read-out: % Growth Inhibition (GI %)
Method in brief: as §1

[26] = system: MDA-MB-468; experiment: NCI anticancer screening, Breast Cancer MDA-MB-468; assay type: cell-based; settings: Homo sapiens, read-out: % Growth Inhibition (GI %)
Method in brief: as §1

[27] = system: MDA-MB-435; experiment: NCI anticancer screening, Melanoma MDA-MB-435; assay type: cell-based; settings: Homo sapiens; MDA-MB-435, 10 μM; read-out: % Growth Inhibition (GI %)
Method in brief: as §1

[28] = system: HOP-92; experiment: NCI anticancer screening, Non-Small Cell Lung Cancer HOP-92; assay type: cell-based; settings: Homo sapiens; HOP-92, 10 μM; read-out: % Growth Inhibition (GI %)
Method in brief: as §1

[29] = system: SNB-75; experiment: NCI anticancer screening, CNS Cancer SNB-75; assay type: cell-based; settings: Homo sapiens; SNB-75, 10 μM; read-out: % Growth Inhibition (GI %)
Method in brief: as §1

[30] = system: NCI/ADR-RES; experiment: NCI anticancer screening, Ovarian Cancer NCI/ADR-RES; assay type: cell-based; settings: Homo sapiens, read-out: % Growth Inhibition (GI %)
Method in brief: as §1

[31] = system: MOLT-4; experiment: NCI anticancer screening, Leukemia MOLT-4; assay type: cell-based; settings: Homo sapiens; MOLT-4, 10 μM; read-out: % Growth Inhibition (GI %)
Method in brief: as §1

[32] = system: SW-620; experiment: NCI anticancer screening, Colon Cancer SW-620; assay type: cell-based; settings: Homo sapiens; SW-620, 10 μM; read-out: % Growth Inhibition (GI %)
Method in brief: as §1

[33] = system: UO-31; experiment: NCI anticancer screening, Renal Cancer UO-31; assay type: cell-based; settings: Homo sapiens; UO-31, 10 μM; read-out: % Growth Inhibition (GI %)
Method in brief: as §1

Compound | inhibition at 10 µM [1] | inhibition at 10 µM [2] | melting point | inhibition at 10 µM [3] | viability at 72 h, 5 µM [4] | inhibition at 10 µM [5] | inhibition at 10 µM [6] | inhibition at 10 µM [7] | inhibition at 10 µM [8] | inhibition at 10 µM [9] | inhibition at 10 µM [10] | inhibition at 10 µM [11] | inhibition at 10 µM [12] | inhibition at 10 µM [13] | inhibition at 10 µM [14] | inhibition at 10 µM [15] | inhibition at 10 µM [16] | inhibition at 10 µM [17] | inhibition at 10 µM [18] | inhibition at 10 µM [19] | other results
O=C(c1nc2ccccc2[nH]1)[C@H]1[C@H](c2cccc(F)c2)C2CSCN2[C@]12C(=O)Nc1ccccc12 (stereo partly drawn) [Compound 6m, (3S,6′R)-6'-(1H-Benzo [d]imidazole-2-carbonyl)-7'-(3-fluorophenyl)-3′,6′,7′,7a′-tetrahydro-1′H-spiro [indoline-3.5′-pyrrolo [1,2-c]thiazol]-2-one] | 98.4% | 90.2% | 224 to 226 °C | 88.6% | 43.7 ± 2.29% | 96.1% | 116% | 106% | 84.6% | 99% | 90.5% | 97.9% | 77.8% | 97.5% | 88.8% | 78.2% | 100% | 91.2% | 84.4% | 91.8% | inhibition at 10 µM [20]: 112%; inhibition at 10 µM [21]: 86%; inhibition at 10 µM [22]: 95%; inhibition at 10 µM [23]: 103%; inhibition at 10 µM [24]: 74.7%; inhibition at 10 µM [25]: 95.7%; inhibition at 10 µM [26]: 99.3%; inhibition at 10 µM [27]: 96.5%; inhibition at 10 µM [28]: 99.7%; inhibition at 10 µM [29]: 77.7%; inhibition at 10 µM [30]: 95.9%; inhibition at 10 µM [31]: 85.5%; inhibition at 10 µM [32]: 89.1%; inhibition at 10 µM [33]: 65.3%
O=C(c1nc2ccccc2[nH]1)[C@H]1[C@H](c2ccc(Br)cc2)C2CSCN2[C@]12C(=O)Nc1ccccc12 (stereo partly drawn) [Compound 6l, (3S,6′R)-6'-(1H-Benzo [d]imidazole-2-carbonyl)-7'-(4-bromophenyl)-3′,6′,7′,7a′-tetrahydro-1′H-spiro [indoline-3.5′-pyrrolo [1,2-c]thiazol]-2-one] | 89.9% | 74.6% | 172 to 174 °C | 71.5% | 37.4 ± 2.02% | 82.8% | 145% | 75.8% | 73% | 77.9% | 95.9% | 88.7% | 91.2% | 78.5% | 84.8% | 67.6% | 91.5% | 60.6% | 59.2% | 79.4% | inhibition at 10 µM [20]: 88.2%; inhibition at 10 µM [21]: 80.2%; inhibition at 10 µM [22]: 67%; inhibition at 10 µM [23]: 79.8%; inhibition at 10 µM [24]: 60.3%; inhibition at 10 µM [25]: 107%; inhibition at 10 µM [26]: 87.2%; inhibition at 10 µM [27]: 67.9%; inhibition at 10 µM [28]: 96.9%; inhibition at 10 µM [29]: 68%; inhibition at 10 µM [30]: 83.2%; inhibition at 10 µM [31]: 56.3%; inhibition at 10 µM [32]: 80.7%; inhibition at 10 µM [33]: 48.6%
O=C(c1nc2ccccc2[nH]1)[C@H]1[C@H](c2ccccc2O)C2CSCN2[C@]12C(=O)Nc1ccccc12 (stereo partly drawn) [Compound 6j, (3S,6′R)-6'-(1H-Benzo [d]imidazole-2-carbonyl)-7'-(2-hydroxyphenyl)-3′,6′,7′,7a′-tetrahydro-1′H-spiro [indoline-3.5′-pyrrolo [1,2-c]thiazol]-2-one] | 103% | 92.2% | 186 to 188 °C | 91.7% | 40 ± 2.38% | 94.3% | 115% | 95.8% | 98.7% | 95.6% | 102% | 85.2% | 87.2% | 105% | 94% | 85% | 106% | 92.4% | 96.3% | 103% | inhibition at 10 µM [20]: 101%; inhibition at 10 µM [21]: 99.3%; inhibition at 10 µM [22]: 101%; inhibition at 10 µM [23]: 96.3%; inhibition at 10 µM [24]: 84%; inhibition at 10 µM [25]: 104%; inhibition at 10 µM [26]: 102%; inhibition at 10 µM [27]: 92.7%; inhibition at 10 µM [28]: 97.3%; inhibition at 10 µM [29]: 73.1%; inhibition at 10 µM [30]: 95.9%; inhibition at 10 µM [31]: 89.5%; inhibition at 10 µM [32]: 95.4%; inhibition at 10 µM [33]: 73.9%

— publication PMC11033320, “Activation of p53 signaling and regression of breast and prostate carcinoma cells by spirooxindole-benzimidazole small molecules” (Frontiers in Pharmacology, 2024)
